In ChEMBL document CHEMBL1155621, “Asitrocin, (2,4)-cis- and trans-asitrocinones: novel bioactive mono-tetrahydrofuran acetogenins from Asimina triloba seeds” (J Nat Prod, 2000):
Converted amounts (≈) assume the structure as drawn.

Legend:
PC-3 = test: Cytotoxicity against human PC3 cells after 7 days by MTT assay; type: functional; details: PC-3, 168 h, read-out: ED50 (the source's name)
A549 = test: Cytotoxicity against human A549 cells after 7 days by MTT assay; type: functional; details: A549, 168 h, read-out: ED50 (the source's name)
[1] = Toxicity in brine shrimp; type: organism-based; details: artemia, in vivo
MCF7 = test: Cytotoxicity against human MCF7 cells after 7 days by MTT assay; type: functional; details: MCF7, 168 h, read-out: ED50 (the source's name)
MIA PaCa-2 = test: Cytotoxicity against human MiaPaCa2 cells after 7 days by MTT assay; type: functional; details: MIA PaCa-2, 168 h, read-out: ED50 (the source's name)
A498 = test: Cytotoxicity against human A498 cells after 7 days by MTT assay; type: functional; details: A498, 168 h, read-out: ED50 (the source's name)
HT-29 = test: Cytotoxicity against human HT29 cells after 7 days by MTT assay; type: functional; details: HT-29, 168 h, read-out: ED50 (the source's name)

**Q.** Which EC50 (PC-3) does the source give for `CCCCCCCCCCCC[C@@H](O)[C@H]1CC[C@H]([C@@H](O)CC[C@H](O)CCCCCCC[C@@H](O)CC2=C[C@H](C)OC2=O)O1` [ASITROCIN] here?
**A.** The EC50 was 1.22 ng/mL (≈ 2.04 nM).

**Q.** And the EC50 (A549)?
**A.** Its EC50 is 0.118 µg/mL (≈ 198 nM).

**Q.** What about the LC50 [1] of the same compound?
**A.** Its LC50 is 0.063 µg/mL (≈ 106 nM).

**Q.** What about the EC50 (MCF7) of the same compound?
**A.** Its EC50 is 3.28 µg/mL (≈ 5500 nM).

**Q.** What about the EC50 (MIA PaCa-2) of the same compound?
**A.** Its EC50 is 0.0148 ng/mL (≈ 0.0248 nM).

**Q.** And the EC50 (A498)?
**A.** The EC50 was 0.0792 µg/mL (≈ 133 nM).

**Q.** What about the EC50 (HT-29) of the same compound?
**A.** Its EC50 is 2.99 ng/mL (≈ 5.01 nM).

**Q.** With `COc1cccc2c1C(=O)c1c(O)c3c(c(O)c1C2=O)C[C@@](O)(C(=O)CO)C[C@@H]3O[C@H]1C[C@H](N)[C@H](O)[C@H](C)O1` [DOXORUBICIN] as the compound, how does the EC50 (MIA PaCa-2) read?
**A.** The EC50 was 6.1 ng/mL (≈ 11.2 nM).
